Laboratory results: patent US20020086876A1, “Treatment of anti-depression drug-induced sexual dysfunction with apomorphine” (priority 2000, published 2002)

Tested on: sexual dysfunction in male patients taking selective serotonin reuptake inhibitors
Assay: Crossover home-use trial of sublingual apomorphine in male patients taking SSRIs (sexual function questionnaire)
Type: in vivo, human (male patients)
Conditions: male patients on SSRI's
Description: A crossover study of 1500 patients in a home-use trial of apomorphine on male patients was performed.
In the crossover study, a 2-4 week baseline period was used to evaluate subjects. After this time, during an initial four week treatment period, subjects received either a placebo or apomorphine, without knowing whether or not they had received the active medication. The dosage was either 2, 4, 5 or 6 mg. This initial treatment period was followed by a 24-96 hour washout period, in which no medication was taken. Subsequently, a second four week treatment period, subjects who previously had received apomorphine, were given a placebo, and subjects who previously had received the placebo were given apomorphine. Subject were to attempt coitus once each week after taking a single tablet of apomorphine sublingually. After each attempt, the subject and their partner completed a sexual function questionnaire which was later evaluated and used for final statistical analysis. In the analysis, the data for patients receiving 2, 4, 5 or 6 mg dosages was pooled.

CN1CCc2cccc3c2[C@H]1Cc1ccc(O)c(O)c1-3 [apomorphine, (R)-5,6,6a,7-tetrahydro-6-methyl-4H-dibenzo-[de,g]quinoline-10,11-diol]
patients on SSRI drugs able to have intercourse after apomorphine, relative to placebo (apomorphine versus placebo): twice as many patients on SSRI drugs were able to have intercourse | attempts successful: attempt resulted in intercourse (single sublingual tablet, pooled 2, 4, 5 or 6 mg dosages, four week treatment period, placebo 23.4%): 47.6% | attempts successful: erection firm enough for intercourse attained (single sublingual tablet, pooled 2, 4, 5 or 6 mg dosages, four week treatment period, placebo 26%): 48%
